Like-named read-outs stand apart in the source and are kept apart here.
Assays:
clinical [1] = conditions: human, in vivo
Method: This was a phase 1, open‐label study of a single dose of oral soticlestat 300 mg with three treatment arms (NCT05098054)[25]: moderate hepatic impairment (Child‐Pugh B; score ≥7 and ≤9; anticipated enrollment n = 8); mild hepatic impairment (Child‐Pugh A; score ≥5 and ≤6; n = 8); and normal hepatic function (n = 12–24). Screening occurred at an outpatient visit up to 28 days before dosing. Participants were admitted to the clinic the day before dosing and remained until day 7. Follow‐up phone contact occurred 14 ± 2 days after dosing.
The moderate hepatic impairment arm was conducted first, followed by the matched normal hepatic function arm. After enrollment of the mild hepatic impairment arm, up to 12 additional participants could be enrolled for the matched normal hepatic function group to ensure a minimum of 12 participants with normal hepatic function and matching the mean of the mild hepatic impairment arm by age, sex, and BMI. Soticlestat was taken as three 100 mg immediate‐release tablets on day 1 with approximately 240 mL water under fasting conditions (≥10 h before dosing and 4 h post‐dose).
(§1) Medical history and demographic data were recorded at screening. Twelve‐lead ECG, pulse rate, and BP were taken 2, 24, and 144 h after dosing or at early termination, and respiratory rate and temperature were taken 24 and 144 h after dosing or at early termination. Hematology, coagulation, serum chemistry, and urine analysis were conducted 48 and 144 h after dosing or at early termination. Blood samples for pharmacokinetic assessments of soticlestat and its metabolites M‐I and M3 were taken predose and 0.133, 0.25, 0.5, 0.75, 1, 1.5, 2, 4, 6, 8, 10, 14, 24, 36, 48, 72, 96, 120, and 144 h after dose administration or at early termination. Blood samples for plasma protein binding were taken predose and 0.5 and 10 h after dose administration. TEAE monitoring occurred throughout the study and at follow‐up.
The study's primary endpoints were the following pharmacokinetic parameters for soticlestat: C max; area under the total plasma concentration‐time curve from time 0 to infinity (AUC∞); and AUC from time 0 to time of the last quantifiable total plasma concentration (AUClast). The incidences of TEAEs and clinically significant abnormal values for laboratory evaluations, vital signs, ECG parameters, and Columbia‐Suicide Severity Rating Scale were secondary objectives. Exploratory endpoints were plasma pharmacokinetic parameters of soticlestat metabolites M‐I and M3 (C max, AUC∞, AUClast, metabolite‐to‐parent ratio [MPR] C max, MPR AUClast, and MPR AUC∞); additional plasma pharmacokinetic parameters of soticlestat and the metabolites M‐I and M3 (time of first occurrence of C max [t max] and terminal disposition phase half‐life [t ½z]); additional plasma pharmacokinetic parameters of soticlestat (apparent clearance after extravascular administration, calculated using the observed value of the last quantifiable total plasma concentration [CL/F]; apparent volume of distribution during the terminal disposition phase after extravascular administration, calculated using the observed value of the last quantifiable total plasma concentration [Vz/F]); and plasma protein binding of soticlestat: fraction of unbound soticlestat.
Total soticlestat, M‐I, and M3 concentrations and unbound soticlestat concentrations were determined using liquid chromatography–tandem mass spectrometry by CMIC, Inc. (Hoffman Estates, IL, USA). Unbound plasma soticlestat concentrations were measured using ultrafiltration (by CMIC, Inc.). Pharmacokinetic parameters were calculated using Phoenix® WinNonlin® version 8.3.4.
Descriptive statistics were derived for the concentration data: number of observations (n), arithmetic mean (mean), standard deviation (SD), arithmetic percent coefficient of variation (CV%), standard error of the mean, minimum, median, and maximum. […]

[2] = Safety: treatment-emergent adverse events after single oral soticlestat 300 mg; type: in vivo, human
Method: as §1
The study's primary endpoints were the following pharmacokinetic parameters for soticlestat: C max; area under the total plasma concentration‐time curve from time 0 to infinity (AUC∞); and AUC from time 0 to time of the last quantifiable total plasma concentration (AUClast). The incidences of TEAEs and clinically significant abnormal values for laboratory evaluations, vital signs, ECG parameters, and Columbia‐Suicide Severity Rating Scale were secondary objectives. […]

clinical [3] = type: in vitro ADME; conditions: human, plasma, Plasma protein binding, mean
Method: Medical history and demographic data were recorded at screening. Twelve‐lead ECG, pulse rate, and BP were taken 2, 24, and 144 h after dosing or at early termination, and respiratory rate and temperature were taken 24 and 144 h after dosing or at early termination. Hematology, coagulation, serum chemistry, and urine analysis were conducted 48 and 144 h after dosing or at early termination. […] Blood samples for plasma protein binding were taken predose and 0.5 and 10 h after dose administration. TEAE monitoring occurred throughout the study and at follow‐up. The study's primary endpoints were the following pharmacokinetic parameters for soticlestat: C max; area under the total plasma concentration‐time curve from time 0 to infinity (AUC∞); and AUC from time 0 to time of the last quantifiable total plasma concentration (AUClast). The incidences of TEAEs and clinically significant abnormal values for laboratory evaluations, vital signs, ECG parameters, and Columbia‐Suicide Severity Rating Scale were secondary objectives. […] Total soticlestat, M‐I, and M3 concentrations and unbound soticlestat concentrations were determined using liquid chromatography–tandem mass spectrometry by CMIC, Inc. (Hoffman Estates, IL, USA). Unbound plasma soticlestat concentrations were measured using ultrafiltration (by CMIC, Inc.). Pharmacokinetic parameters were calculated using Phoenix® WinNonlin® version 8.3.4.

[4] = biological target: cholesterol 24‐hydroxylase (CH24H); conditions: no method or reference given; read-out: CH24H inhibition IC50; cited from earlier work
[5] = cited from earlier work
[6] = design: method as in PMID 33837574; conditions: healthy volunteers, doses 15 to 1350 mg; cited from earlier work
plasma protein = test system: plasma protein; design: method as in PMID 37771051; conditions: human, cited from earlier work
[7] = 300 mg dose of [14C]soticlestat

O=C(c1cccnc1-c1ccncc1)N1CCC(O)(Cc2ccccc2)CC1 [soticlestat]
Increase in total plasma exposure vs healthy matched participants (preliminary analysis) (clinical [1]): approximately 3 fold | Total plasma AUClast higher vs healthy participants (preliminary analysis) (clinical [1]): approximately 3 fold | Total plasma AUC∞ higher vs healthy participants (preliminary analysis) (clinical [1]): approximately 3 fold | Vd/F (clinical [1]; po, 300 mg, Mean ± SD Vz/F, total plasma): 890 ± 1900 L | half-life (clinical [1]; po, 300 mg, Mean ± SD t½z, total plasma): 219 ± 58.5 min | Tmax (clinical [1]; po, 300 mg, Median (range) tmax, total plasma): 30 min | TEAEs based on serum chemistry, hematology, coagulation, urinalysis, vital signs, ECG, or Columbia-Suicide Severity Rating Scale ([2]; all study arms): no TEAEs | Number of TEAEs considered study drug related ([2]; in vivo): two | fraction unbound (clinical [3]): 0.175 | IC50 [4]: 4.5 nM | Administered dose recovered in urine as this substance [5, 7]: 0.1% | Recovery of total radioactivity in feces [5, 7]: 2.7% | Recovery of total radioactivity in urine [5, 7]: 94.8% | Excreted in urine [5]: < 1% | Share of soticlestat metabolism accounted for by UGT1A9 and UGT2B4 [5]: approximately 90% | Absolute bioavailability ([5]; healthy volunteers): 12.6% | Mean plasma maximum concentration (Cmax) [6]: 43.5 to 7950 ng/mL | Terminal elimination half-life [6]: 49.2 to 430 min | In vitro plasma protein binding (plasma protein; 0.1 μg/mL): 94.0% | In vitro plasma protein binding (plasma protein; 1 μg/mL): 93.4% | In vitro plasma protein binding (plasma protein; 10 μg/mL): 70.6% | Main binding protein in plasma (plasma protein): mainly bound to human α‐1‐acid glycoprotein

— PMC11239955, “Phase 1 pharmacokinetic and safety study of soticlestat in participants with mild or moderate hepatic impairment or normal hepatic function” (Pharmacology Research & Perspectives, 2024)
